Data from publication PMC11224556, “Next-generation of BBQ analogues that selectively target breast cancer” (Frontiers in Chemistry, 2024).

Assays:
[1] = tested on: broad panel of cancer cell lines and non-cancer breast cell line MCF10A; settings: ref Gilbert et al., 2017; Gilbert et al., 2020; cited from earlier work
[2] = tested on: MCF10A normal breast cells; test: MTT growth inhibition with CYP1 (αNF) or SULT1A1 (quercetin) inhibitor; type: cell-based, human; settings: 3 and 5 at 0.1 µM, αNF 10 µM, quercetin 5 µM, 72 h (Supp Figure 1)
Experimental: This analysis confirms that both CYP1 and SULT1A1, activity is needed to induce the growth inhibitory effect of the BBQ analogue.
Cells in logarithmic growth were transferred to 96-well plates. Cytotoxicity was determined by plating cells in duplicate in 100 μL medium at a density of 2,500–4,000 cells/well in 96 well plates. On day 0, (24 h after plating) when the cells were in logarithmic growth 100 μL medium with or without the test agent was added to each well. After 72 h drug exposure growth inhibitory effects were evaluated using the MTT (3-[4,5-dimethylthiazol-2-yl]-2,5-diphenyltetrazolium bromide) assay with absorbance read at 540 nm. An eight-point dose response curve was produced, using MS Excel software. From these dose-response curves, the GI50 value was calculated, representing the drug concentration at which cell growth is 50% inhibited based on the difference between the optical density values on day 0 and those at the end of drug exposure ([Bradshaw et al., 2008]; [Zhang et al., 2009]). Each data point was conducted in duplicate and the mean ± S.E.M. calculated from four to five replicates (n = 4 or 5), which were performed on separate occasions and separate cell line passages. Where shown, significant test results were determined using T-test analysis at p < 0.01 and p < 0.05 with a two tail distribution.
Supp Figure 1. CYP1 and SULT1A1 inhibition ameliorates the effect of 3 and 5. Growth inhibition (72 h, MTT assay) of 3 and 5 (0.1 µM) in the presence of the CYP1 family inhibitor, α-naphthoflavone (αNF, 10 µM) and SULT1A1 inhibitor, quercetin (qu, 5 µM) in (A) MDA-MB-468 breast cancer cells and (B) MCF10A normal breast cells. Significant differences are at the P < 0.01 ** level, using a paired T-test with a two-tailed distribution.

[3] = Solubility in the compound testing media; type: physicochemical
AhR = molecular target: T1, AhR (Homo sapiens, UniProt P35869); test: AhR transcription reporter assay (HT29-Lucia AhR cells); type: cell-based; settings: 24 h
T1 construct: This cell line stably expresses the secreted Lucia luciferase reporter gene under the control of a minimal promoter; host or cells: HT29-Lucia AhR reporter cells
T1 sequence (P35869 11-848): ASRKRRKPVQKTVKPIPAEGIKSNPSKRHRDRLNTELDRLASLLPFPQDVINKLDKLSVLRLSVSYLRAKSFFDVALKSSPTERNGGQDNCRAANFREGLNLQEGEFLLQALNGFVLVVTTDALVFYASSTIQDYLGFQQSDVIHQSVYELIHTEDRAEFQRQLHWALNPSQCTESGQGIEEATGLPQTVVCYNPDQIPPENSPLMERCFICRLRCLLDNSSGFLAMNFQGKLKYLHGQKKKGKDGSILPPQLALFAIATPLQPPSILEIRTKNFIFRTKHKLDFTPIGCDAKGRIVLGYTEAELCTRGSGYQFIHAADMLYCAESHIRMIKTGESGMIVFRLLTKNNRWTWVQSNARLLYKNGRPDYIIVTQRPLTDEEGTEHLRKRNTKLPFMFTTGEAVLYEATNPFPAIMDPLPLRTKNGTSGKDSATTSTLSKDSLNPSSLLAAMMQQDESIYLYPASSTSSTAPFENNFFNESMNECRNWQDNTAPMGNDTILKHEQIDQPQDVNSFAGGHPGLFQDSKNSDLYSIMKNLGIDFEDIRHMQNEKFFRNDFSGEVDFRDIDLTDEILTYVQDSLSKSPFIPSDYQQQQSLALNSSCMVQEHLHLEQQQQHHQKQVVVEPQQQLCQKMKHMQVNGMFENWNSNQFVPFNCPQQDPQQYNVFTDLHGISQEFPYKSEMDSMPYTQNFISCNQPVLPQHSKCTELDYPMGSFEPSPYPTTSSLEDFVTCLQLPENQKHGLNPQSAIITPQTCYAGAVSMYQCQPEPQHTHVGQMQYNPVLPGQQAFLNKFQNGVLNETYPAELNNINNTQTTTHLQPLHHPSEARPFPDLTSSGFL
Description: Our previous studies have shown that the activity of NAP-6 (2) and 10-Cl-BBQ (3) required the activation of the AhR pathway and the induction of CYP1 family of phase I metabolising enzymes ([Gilbert et al., 2020]; [Baker et al., 2021a]). Therefore, we sought to determine the activation of AhR using a stable AhR reporter assay in HT29-Lucia™ AhR cells, in the presence of each BBQ analogue (Figure 3). Activation of the AhR was indicated by enhanced luminescence caused by the translocation of the AhR to the nucleus of the cell and interaction with the xenobiotic response elements imbedded in the luciferase gene.
Stock solutions were prepared as follows and stored as 20 mM DMSO solutions at −20 °C. All cell lines were cultured in a humidified atmosphere 5% CO2 at 37 °C. The cancer cell lines were maintained in Dulbecco’s modified Eagle’s medium (DMEM) (Trace Biosciences, Australia) supplemented with 10% foetal bovine serum (FBS), 10 mM sodium bicarbonate, penicillin (100 IU/mL), streptomycin (100 μg/mL), and glutamine (4 mM). The non-cancer MCF10A cell line was cultured in DMEM:F12 (1:1) cell culture media, 5% heat inactivated horse serum, supplemented with penicillin (50 IU/mL), streptomycin (50 μg/mL), 20 mM Hepes, L-glutamine (2 mM), epidermal growth factor (20 ng/mL), hydrocortisone (500 ng/mL), cholera toxin (100 ng/mL), and insulin (10 μg/mL). The AhR reporter cell line HT29-Lucia™ (Invivogen, United States) was maintained in DMEM supplemented with 10% heat inactivated FBS, L-glutamine (2 mM), penicillin (100 IU/mL), streptomycin (100 μg/mL), 100 μg/mL Normocin™, and 100 μg/mL of the selective antibiotic Zeocin™. All cell lines were purchased from the American Type Culture Collection (ATCC), except for A2780 and A431 which were from the European Collection of Authenticated Cell Cultures (ECACC), and SJ-G2 cell line which was from Dr Mary Danks, St Jude Children’s Research hospital, Memphis, TN.
The activity of the AhR signalling pathway was measured using the stably transfected AhR cell line, HT29-Lucia™ (Invivogen, United States). This cell line stably expresses the secreted Lucia luciferase reporter gene under the control of a minimal promoter coupled with the human CYP1A1 gene entire regulatory sequence, containing six DREs. The Lucia luciferase reporter protein is readily measurable in the cell culture supernatant using QUANTI-Luc™. For the determination of AhR activity, 4 × 10^4 cells in 180 μL was plated into each well of a 96 well micro-titre plate in the absence of antibiotics and allowed to culture for 24 h prior to the addition of test compounds in a volume of 20 μL. At the indicated time, 20 μL of cell supernatant was transferred to a white luminometer plate and 50 µL of QUANTI-Luc was added immediately prior to reading the luminescence using a GloMax Explorer Luminescence Plate Reader. The promoter activity was conducted in duplicate and the values expressed as fold-change relative to DMSO (0.1%) treated cells. The AhR ligand, FICZ (6-formylindolo[3,2-b]carbazole) and AhR inhibitor CH223191 were included for study as positive and negative controls, respectively. […] Results are presented as the mean ± standard error of the mean (SEM) of analysis conducted in duplicate and repeated on three separate occasions.

CYP1B1 mRNA = test: Gene expression analysis (qPCR) in MDA-MB-468 cells; type: cell-based, human; settings: 1.0 μM, 6 h
Experimental: (§1) These analogues were specifically chosen because they were synthesised without the production of regioisomers, their structural differences are small while their biological differences are large, c.f. […] Neither analogue altered the expression of SULT1A1 (Figure 4D).
(§2) Gene expression was examined in MDA-MB-468 cells following 6 h treatment. Total RNA was extracted using the RNeasy Mini Kit (Qiagen) according to the manufacturer’s instructions. One µg of RNA was reverse transcribed using the QuanitTect Reverse Transcription Kit (Qiagen) according to the manufacturer’s instructions. Rotor-Gene SYBR Green PCR Kit (Qiagen) was used to perform qPCR on a Rotor-Gene 3,000 Thermo-Cycler Instrument using β2-microglobulin as a housekeeping gene (Qiagen). The primer sequences were purchased from Qiagen as follows: AhR (QT02422938), CYP1A1 (QT00012341), CYP1B1 (QT00209496), SULT1A1 (QT01665489), and β2M (QT00088935). HotStar Taq activation (95 °C for 5 min) was followed by 40 cycles of denaturation (95 °C for 5 s), and annealing/extension (60 °C for 10 s). The comparative Ct value method was used for data analysis. Results are presented as the mean ± standard error of the mean (SEM) of analysis conducted in duplicate and repeated on two separate occasions. Significant test results were determined using T-test analysis at p < 0.01 with a two tail distribution.

CYP1A1 mRNA = test: as above; type: cell-based, human; settings: 1.0 μM, 6 h
Experimental: as §1, §2

In the case of `N#C/C(=C\c1ccc[nH]1)c1ccc(Cl)c(Cl)c1` [Compound 1, (Z)-2-(3,4-dichlorophenyl)-3-(1H-pyrrol-2-yl)acrylonitrile], the “selective targeting of certain breast cancer cell lines compared with normal breast cells or other tumour types (fold)” value [1] is listed as “more than 500 fold”.

In the case of `O=c1c(O)c(-c2ccc(O)c(O)c2)oc2cc(O)cc(O)c12` [quercetin, reference compound], the “effect on growth in normal MCF10A cells” value [2] is reported as “Neither 3, 5, αNF, or quercetin affected growth”.

In the case of `O=c1cc(-c2ccccc2)oc2c1ccc1ccccc12` [α-naphthoflavone, reference compound], the “effect on growth in normal MCF10A cells” value [2] is reported as “Neither 3, 5, αNF, or quercetin affected growth”.

For `O=c1c2cccc3cccc(c32)c2nc3c(Cl)cc(Cl)cc3n12` [Compound 6, 10,12-Dichloro-7H-benzo[de]benzo[4,5]imidazo[2,1-a]isoquinolin-7-one], the “solubility in the compound testing media” value [3] was “insoluble” and the melting point was 292 to 294 °C.

For “6-formylindolo[3,2-b]carbazole [FICZ, reference compound]”, the “AhR activation, Fold Reporter Induction” value (AhR; 0.5 μM, positive control) was 2.7 fold, the “CYP1B1 Fold change (mRNA vs DMSO control)” value (CYP1B1 mRNA) was 3.7 fold and the “CYP1A1 Fold change (mRNA vs DMSO control)” value (CYP1A1 mRNA) was 19 fold.

For `Cc1ccccc1N=Nc1ccc(NC(=O)c2ccnn2C)c(C)c1` [CH223191, reference compound], the “AhR activation, Fold Reporter Induction” value (AhR; 2.5 μM, negative control) was 0.7 fold.
